Laboratory results published in US20230381144A1, “COMPOSITIONS AND METHODS FOR TREATMENT OF PAIN” (SYNVENTA LLC, priority 2019, published 2023).

What was measured:
[1] = Radio-telemetry recording of core body temperature in conscious rats; format: in vivo, Sprague-Dawley rat
Method: A laparotomy is performed.
One week later, drugs tests are conducted.
FIGS. 2-4 all show an increase in core body temperature approaching and at the zero time point. Those skilled in the art would readily appreciate that this increase is an artifact in the study associated with the required handling of the animals to effectuate the dosing.

[2] = cited from earlier work
[3] = 0.003 mg/kg and 0.01 mg/kg, i.p.; male and female rats
Method: Adult male and female Sprague-Dawley are implanted with radio-telemetry transmitters for monitoring blood pressure and core body temperature. Radio-telemetry transmitter (DSI HD-S10) implantation is performed under sterile condition. Long-acting buprenorphine (1 mg/kg/day, SC) is administered prior to anesthesia for postoperative pain relief. Rats are anesthetized with 5% isoflurane and kept on 2% isoflurane to maintain a stable level of anesthesia. Body temperature is maintained during surgery using a heating pad. A laparotomy is performed. The catheter tip of the telemetry transmitter is secured with a 4-0 silk suture in the abdominal cavity. The body of the telemetry transmitter is placed in the abdominal cavity and secured to the abdominal wall. Approximately 100 μL of 0.25% marcaine is applied directly to the muscle incision, and the skin is then closed with a 5-0 Vicryl absorbable suture placed subcuticularly. After recovery from anesthesia, rats are returned to their home cages placed on DSI receivers.
After one week of recovery, rats are habituated to the drug administration procedure over three separate sessions. One week later, drugs tests are conducted. […]

With `CC(C)(C)c1ccc2c(c1)CC[C@H]2NC(=O)Nc1cccc2[nH]ncc12` [ABT-102, 1-[(1R)-5-tert-butyl-2,3-dihydro-1H-inden-1-yl]-3-(1H-indazol-4-yl)urea] the “increase in body temperature above vehicle” value ([1]; conscious, telemetry-instrumented rat, ABT-102 3 and 10 mg/kg, p.o., FIG. 2) was “up to 1.0 °C”.
For `CC(=O)Nc1nc2c(Oc3cc(-c4ccc(C(F)(F)F)cc4)ncn3)cccc2s1` [AMG 517, N-(4-((6-(4-(trifluoromethyl)phenyl)pyrimidin-4-yl)oxy)benzo[d]thiazol-2-yl)acetamide], the temperature elevations ([2]; Phase 1b study, reason the study was halted) is given as “unexpectedly high temperature elevations” and the analgesic effect ([2]; review of the data for the 17 subjects enrolled) is given as “no clear analgesic effect”.
With `Cc1cccc([C@H](C)c2cnc[nH]2)c1C` [dexmedetomidine] the “effect on ABT-102-induced hyperthermia at the lowest tested dose” value ([1]; dexmedetomidine 0.003 mg/kg in combination with ABT-102, FIG. 4) was “able to neutralize ABT-102-induced hyperthermia”, the “effect on core body temperature” value ([1]; dexmedetomidine alone, 0.003 mg/kg, FIG. 3) was “no effect” and the “effect on ABT-102-induced increase in core body temperature” value ([1]; dexmedetomidine in combination with ABT-102 5 mg/kg, p.o., FIG. 4, p<0.0001) was “prevented hyperthermic effects”. For the same compound, the “effect of dexmedetomidine on its own (FIG. 5, mean arterial blood pressure)” value [3] was “free from causing hypothermic effects”.
